Laboratory results taken from patent US7781479B2, “Heteroaryl derivatives” (Dainippon Sumitomo Pharma Co., Ltd., priority 2005, dated 2010).

system: male db/db mice; experiment: Hypoglycemic activity in db/db mice (blood glucose level); type: in vivo; settings: 30 mg/kg orally once a day for 2 weeks, blood glucose level on the last day
Procedure: The test compounds as disclosed in Examples were dissolved or suspended in a 0.5% carbomethyl cellulose solution, and orally administered to male db/db mice (7 to 8 weeks old) at a final dose of 30 mg/kg once a day for 2 weeks. On the last day, the blood was taken at the tail vein, and immediately thereafter, perchloric acid was added for removing proteins, and the blood glucose level was measured by Glucolse CII Test Wako (Wako Pure Industries, Ltd.).
The hypoglycemic activity was calculated by the following equation.

| SMILES | Hypoglycemic Activity (%) |
| --- | --- |
| Cc1ccc(C(=O)c2nn(/C=C/c3ccc(CO[C@H](C)C(=O)O)cc3)c3ccccc23)cc1 [Example 34, (2R)-2-[(4-{(E)-2-[3-(4-Methylbenzoyl)-1H-indazol-1-yl]vinyl}benzyl)oxy]propanoic acid] | 47.4 |
| COc1ccc2c(C(=O)c3ccc(C)cc3)c(C)n(Cc3cccc(CO[C@H](C)C(=O)O)c3)c2c1 [Example 54, (2R)-2-[(3-{[6-Methoxy-2-methyl-3-(4-methylbenzoyl)-1H-indol-1-yl]methyl-}benzyl)oxy]propionic acid] | 47.7 |
| Cc1ccc(C(=O)c2c(C)n(C/C=C/c3ccc(COC(C)(C)C(=O)O)cc3)c3ncccc23)cc1 [Example 20, 2-Methyl-2-[(4-{(1E)-3-[2-Methyl-3-(4-methylbenzoyl)-1H-pyrrolo[2,3-b]pyridin-1-yl]prop-1-en-1-yl}benzyl)oxy]propionic acid] | 50.4 |
| Cc1ccc(C(=O)c2nn(C/C=C/c3ccc(COC(C)(C)C(=O)O)cc3)c3ccccc23)cc1 [Example 35, 2-Methyl-2-[(4-{(1E)-3-[3-(4-methylbenzoyl)-1H-indazol-1-yl]prop-1-en-1-yl}benzyl)oxy]propanoic acid] | 27.3 |

target: T1, human PPARα ligand binding domain fused to GAL4 DNA binding domain (Homo sapiens, UniProt Q07869); experiment: GAL4-PPARα luciferase reporter assay in COS-1 cells; type: cell-based; settings: relative luciferase activity, vehicle (DMSO) control regarded as 1, 24 hours
T1 construct: human PPARα (including amino acid residues 167-468); expressed in transfected cells; host or cells: COS-1 cells
T1 sequence (Q07869 167-468): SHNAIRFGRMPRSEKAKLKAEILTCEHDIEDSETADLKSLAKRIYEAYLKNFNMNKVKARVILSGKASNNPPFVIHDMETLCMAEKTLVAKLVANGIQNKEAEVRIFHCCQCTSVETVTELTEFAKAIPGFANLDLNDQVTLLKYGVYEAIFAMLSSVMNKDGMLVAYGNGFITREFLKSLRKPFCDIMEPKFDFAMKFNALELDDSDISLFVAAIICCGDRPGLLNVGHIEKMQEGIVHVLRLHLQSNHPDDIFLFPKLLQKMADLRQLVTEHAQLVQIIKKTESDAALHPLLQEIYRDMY
Source text: (§1) Evaluation of PPAR α or γ Agonistic Activity
(§2) Construction of Reporter Plasmid
(§3) By inserting a gene fragment encoding the ligand binding domain of human PPARα (including amino acid residues 167-468) or a gene fragment encoding the ligand binding domain of human PPARγ (including amino acids residue 204-505) into a multicloning site of expressing vector pM containing DNA binding domain of yeast GAL4 protein (Clonetech), a vector plasmid for expressing a fused protein of GAL4 protein DNA binding domain and human PPARα or γ ligand binding domain was obtained.
(§4) As a reporter plasmid, pGL3-Basic Vector containing firefly luciferase gene (Promega Corporation) was used wherein Gal 4-responsive sequence UAS and rabbit β-globin promoter were inserted.
(§5) For the correction of transformation efficiency, a plasmid pβgal control (Clonetech) containing lacZ gene, was used.
COS-1 cells were cultured in the phenol red free Dulbecco's Modified Eagles Medium (DMEM) (Gibco) supplemented with 5% activated charcoal/dextran stripped fetal bovine serum at 37° C. with 5% carbon dioxide. […] The luciferase activity therein was measured by a luminometer using the reagent for measuring luciferase which was also accompanied to said System.
The PPARα- or γ-agonistic activity was expressed as a relative activity where the luciferase activity in the well to which the vehicle (DMSO) was added as control was regarded as 1. […]

| SMILES | PPARα-agonistic activity (10 μM) |
| --- | --- |
| Cc1ccc(C(=O)c2c(C)n(-c3ccc(COC4(C(=O)O)CCC4)cc3)c3ccccc23)cc1 [Example 86, 1-({4-[2-Methyl-3-(4-methylbenzoyl)-1H-indol-1-yl]benzyl}oxy)cyclobutane carboxylic acid] | 1.3 |

target: T2, human PPARγ ligand binding domain fused to GAL4 DNA binding domain (Homo sapiens, UniProt P37231); experiment: GAL4-PPARγ luciferase reporter assay in COS-1 cells; type: cell-based; settings: 10 μM, relative luciferase activity, vehicle (DMSO) control regarded as 1, 24 hours
T2 construct: human PPARγ (including amino acids residue 204-505); expressed in transfected cells; host or cells: COS-1 cells
T2 sequence (P37231 204-505): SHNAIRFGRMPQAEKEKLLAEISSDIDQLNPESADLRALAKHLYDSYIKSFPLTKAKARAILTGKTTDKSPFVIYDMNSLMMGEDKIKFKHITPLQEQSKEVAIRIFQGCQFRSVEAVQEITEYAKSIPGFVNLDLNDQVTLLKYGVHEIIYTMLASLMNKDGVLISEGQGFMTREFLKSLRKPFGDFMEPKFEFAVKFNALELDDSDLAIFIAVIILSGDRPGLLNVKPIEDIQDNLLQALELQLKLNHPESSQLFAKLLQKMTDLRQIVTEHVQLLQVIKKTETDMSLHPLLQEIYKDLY
Source text: as §1, §2, §3, §4, §5
COS-1 cells were cultured in the phenol red free Dulbecco's Modified Eagles Medium (DMEM) (Gibco) supplemented with 5% activated charcoal/dextran stripped fetal bovine serum at 37° C. with 5% carbon dioxide. The COS-1 cells were plated at a concentration of 5×10^4 cells/well into a 24-well plate, and were incubated overnight. The medium was replaced with a fresh medium supplemented […] 5% activated charcoal/dextran treated fetal bovine serum. Further, the cells were transfected using Lipofectamine plus reagent (Gibco) with plasmids GAL4-PPARα- or γ-expressing plasmid (5 ng), the reporter plasmid (50 ng), and pβgal control (350 ng) per well. After incubation for 4 hours, the medium was changed with a fresh medium supplemented with 5% activated charcoal/dextran treated fetal bovine serum. Then, the compound of the present invention was added thereto in such an amount that the final concentration thereof is 0.1 μM, 0.3 μM, 1 μM, 3 μM or 10 μM. After the cultivation for 24 hours, the cells were lysed with a solution for cell lysis accompanied to the Luciferase Assay System (Promega Corporation). The luciferase activity therein was measured by a luminometer using the reagent for measuring luciferase which was also accompanied to said System.
The PPARα- or γ-agonistic activity was expressed as a relative activity where the luciferase activity in the well to which the vehicle (DMSO) was added as control was regarded as 1. The PPARα-agonistic activity and the PPARγ-agonistic activity at each 10 μM, and the maximum PPARγ-agonistic activity (%) of the compound of the present invention per the maximum PPARγ-agonistic activity (100%) of pioglitazone are shown in the following Table 1.

| SMILES | PPARγ-agonistic activity (10 μM) |
| --- | --- |
| Cc1ccc(C(=O)c2c(C)n(-c3ccc(COC4(C(=O)O)CCC4)cc3)c3ccccc23)cc1 [Example 86, 1-({4-[2-Methyl-3-(4-methylbenzoyl)-1H-indol-1-yl]benzyl}oxy)cyclobutane carboxylic acid] | 2.8 |

same assay, conditions: maximum PPARγ-agonistic activity per the maximum PPARγ-agonistic activity (100%) of pioglitazone

| SMILES | Emax [%] |
| --- | --- |
| Cc1ccc(C(=O)c2c(C)n(Cc3ccc(/C=C/COC(C)(C)C(=O)O)cc3)c3ccccc23)cc1 [Compound 79] | 35 |
| COc1ccc2c(C(=O)c3ccc(C)cc3)c(C)n(Cc3ccc(CO[C@H](C)C(=O)O)cc3)c2c1 [Compound 46] | 26 |
| COc1ccc2c(C(=O)c3ccc(C)cc3)c(C)n(Cc3cccc(CO[C@H](C)C(=O)O)c3)c2c1 [Compound 54] | 39 |
| Cc1ccc(C(=O)c2c(C)c3ccc(C(F)(F)F)cc3n2Cc2ccc(/C=C/COC(C)(C)C(=O)O)cc2)cc1 [Compound 83] | 13 |
| Cc1ccc(C(=O)c2c(C)n(Cc3cccc(CO[C@H](C)C(=O)O)c3)c3ncccc23)cc1 [Compound 59] | 41 |
| Cc1ccc(C(=O)c2cccn2C/C=C\c2ccc(COC(C)(C)C(=O)O)cc2)cc1 [Compound 1] | 51 |
| Cc1ccc(C(=O)c2ccn(C/C=C/c3ccc(CO[C@H](C)C(=O)O)cc3)n2)cc1 [Compound 21] | 71 |
| Cc1ccc(C(=O)c2c(C)n(C/C=C/c3ccc(COC(C)(C)C(=O)O)cc3)c3ncccc23)cc1 [Compound 20] | 68 |
| COc1ccc2c(C(=O)c3ccc(C)cc3)c(C)n(Cc3ccc(/C=C/COC(C)(C)C(=O)O)cc3)c2c1 [Compound 81] | 42 |
| Cc1ccc(C(=O)c2nn(C/C=C/c3ccc(COC(C)(C)C(=O)O)cc3)c3ccccc23)cc1 [Compound 35] | 57 |
| Cc1ccc(C(=O)c2c(C)n(-c3ccc(COC4(C(=O)O)CCC4)cc3)c3ccccc23)cc1 [Example 86, 1-({4-[2-Methyl-3-(4-methylbenzoyl)-1H-indol-1-yl]benzyl}oxy)cyclobutane carboxylic acid] | 20 |
| Cc1ccc(C(=O)c2cccn2Cc2ccc(/C=C/CO[C@H](C)C(=O)O)cc2)cc1 [Compound 68] | 71 |
